For series [1] the following is noted: male, Sprague Dawley, rat, microsomes. As to the method:
(§1) The final organic content in liver microsomal incubations was 0.5%.
Liver microsomal protein (25 uL for 0.5 mg/mL; 15 uL for 0.3 mg/mL), NADPH (100 uL, 2 mM final concentration) and phosphate buffer (870 uL for 0.5 mg/mL; 880 uL for 0.3 mg/mL) were incubated in a microfuge tube in an orbital shaker incubator for 10 min maintained at 37° C. Reactions were initiated by spiking 5 uL of 2 mM and 0.2 mM 5-bromo-2,6-di(1H-pyrazol-1-yl)pyrimindin-4-amine([…]; […]; 0.5% final DMSO concentration) and samples incubated at 37° C. Aliquots (200 uL) were withdrawn from the reaction tube at 0, 60 and 120 minutes and the reaction was quenched by addition of 100 uL acetonitrile. Reactions were performed in duplicates. The quenched samples were centrifuged at 14000 rpm (approximately 21000 g) for 10 minutes(Eppendorf Centrifuge 5810 R) and supernatant was analyzed by LCMS/MS.
(§2) Control incubations (no NADPH added) and blank incubations (no test item added) were performed in singlet for each species. These samples were withdrawn at 0 and 120 min and quenched using acetonitrile. The supernatant was analyzed for any non microsomal degradation and matrix interference. […] Reaction and control experiments were performed in singlet.

How the values of series [2] were obtained: as §1
Liver microsomal protein (25 uL for 0.5 mg/mL; 15 uL for 0.3 mg/mL), NADPH (100 uL, 2 mM final concentration) and phosphate buffer (870 uL for 0.5 mg/mL; 880 uL for 0.3 mg/mL) were incubated in a microfuge tube in an orbital shaker incubator for 10 min maintained at 37° C. Reactions were initiated by spiking 5 uL of 2 mM and 0.2 mM 5-bromo-2,6-di(1H-pyrazol-1-yl)pyrimindin-4-amine(10 uM final concentrations for 0.5 mg/mL protein; 1 uM final concentration for 0.3 mg/mL protein; 0.5% final DMSO concentration) and samples incubated at 37° C. Aliquots (200 uL) were withdrawn from the reaction tube at 0, 60 and 120 minutes and the reaction was quenched by addition of 100 uL acetonitrile. Reactions were performed in duplicates. The quenched samples were centrifuged at 14000 rpm (approximately 21000 g) for 10 minutes(Eppendorf Centrifuge 5810 R) and supernatant was analyzed by LCMS/MS.
as §2

Series [3] is described as follows: Liver microsomal incubations compared across tested species. Format: in vitro ADME, rat, dog, human. As to the method:
(§3) Reactions were performed in duplicates.
(§4) Reaction and control experiments were performed in singlet.
A general note: Microsomes from liver hold many membrane-bound enzymes, among them those of drug oxidation.

For series [4], the target named is T1, human adenosine A2A receptor (Homo sapiens, UniProt P29274).
T1 construct: purchased Perkin Elmer RBHA2AM400UA; host or cells: HEK-293 cells stably expressing the receptor (membrane preparation)
T1 sequence (P29274 whole entry): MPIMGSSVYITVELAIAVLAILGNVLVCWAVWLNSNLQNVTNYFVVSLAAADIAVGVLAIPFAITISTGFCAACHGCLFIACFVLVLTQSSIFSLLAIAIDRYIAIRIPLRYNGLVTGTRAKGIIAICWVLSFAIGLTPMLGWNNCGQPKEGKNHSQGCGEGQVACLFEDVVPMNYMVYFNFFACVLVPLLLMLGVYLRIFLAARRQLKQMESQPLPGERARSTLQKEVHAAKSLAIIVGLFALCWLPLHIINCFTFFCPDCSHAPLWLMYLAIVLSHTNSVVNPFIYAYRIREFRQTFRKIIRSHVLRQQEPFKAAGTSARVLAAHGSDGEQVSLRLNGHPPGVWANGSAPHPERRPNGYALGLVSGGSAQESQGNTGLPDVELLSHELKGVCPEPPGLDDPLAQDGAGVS
Description: In vitro hA2A radioligand binding assay. Conditions: [3H]-ZM241385 competition, HEK-293 membranes; Ki from IC50 by Cheng-Prusoff.

Series [5] is classed as in vitro ADME. Conditions: for Percentage area ratio with respect to parent (10 uM): 0 min. How it is done: • ACN: acetonitrile • CC: calibration curve • IS: internal standard • DMSO: dimethylsulfoxide • MRM: multiple reaction monitoring • […]: nicotinamide adenine dinucleotide phosphate (reduced) • Rpm: revolution per minute Liver Microsomes • Rat liver microsomes (male, pooled, Sprague Dawley) • Source: XenoTech, LLC (Kansas, USA) • Protein content: 20 mg/mL • Catalogue number: R I 000, Lot number: 0710623 • Dog liver microsomes (male, pooled, Beagle) • Source: XenoTech, LLC (Kansas, USA) • Protein content: 20 mg|mL • Catalogue number: D I 000, Lot number: 0810143 • Human liver microsomes (mixed gender, pooled) • Source: XenoTech, LLC (Kansas, USA) • Protein content: 20 mg|mL • Catalogue number: H061 0, Lot number: 101042 Stock Solutions and Reagents Test Item
as §3, §4
Samples were processed using protein precipitation method and then analyzed by employing linear gradient with a run time of 28 min in HPLC coupled with tandem mass spectrometry (API 4000 mass spectrometer). Each sample was injected and scanned separately for Q1 (MH+/MH−) and MS/MS.
The different possible metabolite peaks were identified in Q1 scan after assessing for matrix interference using test item free blank samples, and were confirmed from the fragmentation pattern (MSIMS scan).
An alternate analytical method was also developed to increase the retention times and to assess other metabolites apart from the identified M-1 metabolite. Aqueous solutions of 1-(6-amino-5-bromo-2-(1H-pyrazol-1-yl)pyrimidin-4-yl)-1H-pyrazol-4-ol and 1-(4-amino-5-bromo-6-(1H-pyrazol-1-yl)pyrimidin-2-yl)-1H-pyrazol-4-ol (1 uM) were co-chromatographed with the in vitro incubated samples employing modified analytical method to confirm the identity.

Series [6] in a line: Mass balance determination in human liver microsomes (MRM analysis). The class given is in vitro ADME. How it is done: as §3
An aliquot (25 uL) of these samples were further diluted with 100 uL of internal standard (Haloperidol, 1 ug|mL in acetonitrile).
The incubation samples were also prepared similar to that of the calibration standards by adding 25 uL of the quenched sample with 100 uL of internal standard.

Where [7] appears, read: human liver microsomes, parent 10 uM, 0 min, Set-1.
Setting [8] is: human liver microsomes, parent 10 uM, 0 min, Set-2.
[9] abbreviates: human liver microsomes, parent 10 uM, 30 min, Set-1.
Setting [10] is: human liver microsomes, parent 10 uM, 30 min, Set-2.
[11] abbreviates: human liver microsomes, parent 10 uM, 60 min, Set-1.
Where [12] appears, read: human liver microsomes, parent 10 uM, 60 min, Set-2.

Read-outs that look alike come from different tables or passages of the source. Marks after values point to notes of the source that are not given here.

Results on three compounds are retold here after US11078191B2, “1-(4-amino-5-bromo-6-(1H-pyrazol-1-yl)pyrimidin-2-yl)-1H-pyrazol-4-ol and use thereof in the treatment of cancer” (Novartis AG, priority 2017, dated 2021).

The term Ki denotes a measure of affinity in units of concentration, obtained from inhibition or displacement. A low value points to a stronger hold on the target.

Consider `O=C(O)Cc1ccccc1Nc1c(Cl)cccc1Cl` [Diclofenac], for which the “% remaining” value in series [1] (0 h, 0.5 uM) worked out at 100%; in series [1] (1 h, 0.5 uM) it was 12%; in series [2] (both, human, microsomes, 0 h, 0.5 uM) it was 100%; in series [2] (both, human, microsomes, 1 h, 0.5 uM), 100%.

Regarding `Nc1nc(-n2cc(O)cn2)nc(-n2cccn2)c1Br` [Example 1, 1-(4-amino-5-bromo-6-(1H-pyrazol-1-yl)pyrimidin-2-yl)-1H-pyrazol-4-ol], the “percentage of metabolite with respect to parent” value in series [3] (rat, dog and human liver microsomes, assumes equal ionization efficiency) is “uniformly low”. The same compound returned a Ki in series [4] of 50 nM. Moreover, the “Percentage area ratio with respect to parent (10 uM)” value in series [5] (male, Beagle, dog) came to 0.01%. The “percentage of M-I metabolite in human liver microsomes” value in series [6] (after 60 minutes of incubation with parent, % of the parent) is listed as 15-20%. In addition, the “% M-I detected” value is on record as 0% in series [6] (setting [7]); 0% in series [6] (setting [8]); 10.95% in series [6] (setting [9]); 7.97% in series [6] (setting [10]); 18.93% in series [6] (setting [11]); 15.08% in series [6] (setting [12]). In addition, the “M-I Concentration” value in series [6] (setting [7]) is 0 µM; in series [6] (setting [8]), 0 µM; in series [6] (setting [9]), 1.29 µM; in series [6] (setting [10]) it was 0.92 µM; in series [6] (setting [11]), 2.23 µM; in series [6] (setting [12]), 1.74 µM.

On to `Nc1nc(-n2cccn2)nc(-n2cccn2)c1Br` [Parent, 5-bromo-2,6-di(1H-pyrazol-1-yl)pyrimindin-4-amine], for which the “relative metabolism across tested species” value in series [3] (1 uM, 0.3 mg/mL microsomal protein, DLM, HLM, RLM = dog, human, rat liver microsomes) was “DLM>HLM>RLM”. For the same compound, the “stability in control incubations (no NADPH added)” value in series [3] (liver microsomes, indicating no non-CYP mediated metabolism) was “stable up to 120 min”. The “% remaining” value in series [1] (0 h, 1 uM) is recorded as 100%; in series [2] (both, human, microsomes, 0 h, 1 uM), 100%; in series [2] (male, Beagle, dog, microsomes, 0 h, 1 uM), 100%. The “% metabolism of parent at 120 min” value in series [2] (both, human, 1 uM) amounted to 76%; in series [2] (human, 1 uM), 78%; in series [2] (male, Beagle, dog, 1 uM), 83%; in series [5] (male, Sprague Dawley, rat, 120 min, 10 uM), 0%. Moreover, the “Concentration of Analyte metabolized” value in series [2] (male, Beagle, dog, microsomes, 2 h, 1 uM) was found to be 830 nM; in series [5] (male, Sprague Dawley, rat, microsomes, 2 h, 10 uM), 0 nM. Also, the “Percentage area ratio with respect to parent (10 uM)” value came to 100% in series [5] (both, human); 100% in series [5] (male, Beagle, dog); 100% in series [5] (male, Sprague Dawley, rat). For the same compound, the “% parent Remaining” value is recorded as 100% in series [6] (setting [7]); 96.26% in series [6] (setting [9]); 88% in series [6] (setting [11]); 100% in series [6] (human, microsomes, 0 h, 10 uM); 87.44% in series [6] (human, microsomes, 0.5 h, 10 uM); 79.55% in series [6] (human, microsomes, 1 h, 10 uM). Further, the “Parent Concentration” value in series [6] (setting [7]) is 11.78^a uM; in series [6] (setting [9]) it was 11.34^a uM; in series [6] (setting [11]), 10.47^a uM; in series [6] (human, 0 min, 10 uM), 11.54^a uM; in series [6] (human, 30 min, 10 uM) it was 10.09^a uM; in series [6] (human, 60 min, 10 uM), 9.18 µM. Also, the Mass balance was found to be 107.22% in series [6] (setting [9]); 107.81% in series [6] (setting [11]); 95.41% in series [6] (human, 30 min, 10 uM); 94.63% in series [6] (human, 60 min, 10 uM). In addition, in series [6] (text summary of Table 7), the “mass balance for the metabolism in human liver microsomes” value was 95 to 107%.
